Laboratory results published in US9241976B2, “Use of HDL-related molecules to treat and prevent proinflammatory conditions” (THE REGENTS OF THE UNIVERSITY OF CALIFORNIA, priority 2011, dated 2016).

Experiments:
CT26 cells [1] = assay: CT26 cell viability, MTS assay; conditions: Example 5; CT26 cells, 10 mg/mL, 48 hours
Experimental: CT26 cell line derived from N-nitroso-N-methyl urethane-induced mouse colon carcinoma of BALB/c origin was purchased from the American Type Culture Collection (ATCC). CT26 cells (2,000 cells per well) were first cultured in complete medium in 96-well culture plates, and 24 hours later the medium was replaced with serum free medium. Following an overnight incubation, the cells were either treated with vehicle (control), or treated with 10 μg/mL of either bHDL. The bHDL were dissolved in H2O. Cells were incubated for an additional 48 hours and assayed for viability using the MTS assays kit (Promega) according to the manufacturer's protocol.
CT26 cell line derived from N-nitroso-N-methyl urethane-induced mouse colon carcinoma of BALB/c origin was purchased from the American Type Culture Collection. CT26 cells (2,000 cells per well) were first cultured in complete medium in 96-well culture plates, and 24 hours later the medium was replaced with serum-free medium. Following an overnight incubation, the cells were either treated with vehicle (control) or treated with 10 mg/mL of either L-4F or G* peptide. The peptides were dissolved in H2O. Cells were incubated for an additional 48 hours and assayed for viability using the MTS assay kit (Promega) according to the manufacturer's protocol.

cyclin D1 and cyclin A = assay: Western blot of cyclin D1 and cyclin A in CT26 cells; assay type: cell-based, mouse
Experimental: Total cell proteins were collected after treatment in cell lysis buffer containing 0.1 mol/L NaCl, 5 mmol/L EDTA, 50 mmol/L sodium orthovanadate, 1% Triton X-100, and protease inhibitor tablet in 50 mmol/L Tris buffer (pH 7.5). Twenty micrograms of total proteins were separated by SDS-PAGE and transferred onto nitrocellulose membrane and followed by incubation with primary antibody at 4° C. in 5% skim milk and 0.1% Tween-20. Anti-cyclin D1 and anti-cyclin A rabbit polyclonal antibodies were used at 1:1,000 dilution, and anti-b-actin polyclonal antibody was used at 1:2,000 dilution.

CT26 cells [2] = assay: Pulmonary metastasis in vivo: CT26 lung tumors in BALB/c mice; parameters: species or system mouse; conditions: CT26 via tail vein, 100 mg/kg/d in chow diet for 3 weeks
Experimental: BALB/c mice were intravenously injected with 2×10^4 CT26 cells in 100 μL of PBS via tail vein injection and the mice were treated with bHDL at 10 mg/kg/day administered SQ for 3 weeks; or treated with bHDL at 100 mg/kg/day administered in a chow diet for 3 weeks. After 3 weeks treatment, the mice were sacrificed; lungs were harvested, weighed and fixed with Bouin's solution (Sigma). Tumor nodules on the lung surface were counted.
BALB/c mice were intravenously injected with 2×10^4 CT26 cells in […] of PBS via tail vein injection and the mice were treated with L-4F or sc-4F at 10 mg/kg/d administered subcutaneously for 3 weeks, or treated with sc-4F or L-4F or G* peptide at 100 mg/kg/d administered in a chow diet for 3 weeks. After 3 weeks treatment, the mice were sacrificed; lungs were harvested, weighed, and fixed with Bouin solution (Sigma). Tumor nodules on the lung surface were counted.

[3] = system: lysophosphatidic acid (LPA); assay: Plasma LPA levels in treated mice; assay type: in vivo, mouse; conditions: BALB/c lung tumor mice; 100 mg/kg/d in chow for 3 weeks; vs control mice
Experimental: LPA (20:4) was purchased from Avanti Polar Lipids. LPA levels were determined as described previously (Murph et al., 2007, Methods Enymol 433:1-25).
LPA (20:4) was purchased from Avanti Polar Lipids. LPA levels were determined as described previously (19).

## Ac-LVGRQLEEFL-NH2 [G* peptide, Ac-L-V-G-R-Q-L-E-E-F-LNH2]
CT26 cells [1]
  Cell viability reduced, compared with control: approximately 40%
Cyclin D1 and cyclin A
  expression of cyclin D1 and cyclin A: lower
CT26 cells [2]
  lung weights: 250 mg
  tumor numbers on the lung surface: 10
[3]
  plasma LPA levels: significantly reduced
